The text below walks through data of publication PMC9307089 (Journal of medicinal chemistry, 2021).

In series [1] the target is T1, recombinant serine protease domain of HGFA (Homo sapiens, UniProt Q04756).
T1 sequence (Q04756 408-646 limits assumed): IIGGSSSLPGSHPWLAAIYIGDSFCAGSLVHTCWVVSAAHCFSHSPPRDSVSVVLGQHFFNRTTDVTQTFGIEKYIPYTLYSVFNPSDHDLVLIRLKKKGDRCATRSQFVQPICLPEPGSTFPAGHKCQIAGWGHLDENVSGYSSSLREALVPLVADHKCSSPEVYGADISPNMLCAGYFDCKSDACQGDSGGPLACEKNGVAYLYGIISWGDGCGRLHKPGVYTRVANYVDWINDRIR
Put plainly: Fluorescent kinetic enzyme inhibition assay, HGFA. In kind it is biochemical.

The next series deals with T2, matriptase (Homo sapiens, UniProt Q9Y5Y6).
T2 sequence (Q9Y5Y6 615-855 limits assumed): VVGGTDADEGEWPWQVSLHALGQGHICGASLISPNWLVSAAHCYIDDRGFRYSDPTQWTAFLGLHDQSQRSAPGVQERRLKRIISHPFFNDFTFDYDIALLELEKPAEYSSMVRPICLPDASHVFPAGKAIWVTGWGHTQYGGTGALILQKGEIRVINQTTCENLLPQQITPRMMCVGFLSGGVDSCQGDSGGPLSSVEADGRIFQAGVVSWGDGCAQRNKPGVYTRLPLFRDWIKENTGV
The experiment in a line: Fluorescent kinetic enzyme inhibition assay, matriptase. In kind it is biochemical.

The next series has as its target Factor Xa (Homo sapiens, UniProt P00742). Put plainly: Chromogenic kinetic enzyme assay, Factor Xa. Type of series: biochemical.
The target in a further series is thrombin (Homo sapiens, UniProt P00734). The experiment in a line: Chromogenic kinetic enzyme assay, thrombin. Type of series: biochemical.
Series [2] is described as follows: In vitro stability in mouse plasma. Type of series: in vitro ADME.
Series [3] can be described thus: In vitro stability in human plasma. In kind it is in vitro ADME.

Numbered stars: 1 amine (or outer) side, 2 acyl side, 3 side chain; on linkers, the order of the positions; unused ones are H or OH. Bridge positions count the residues as written; N and C are the ends. Square brackets hold non-standard residues; d marks the D form. Peptide text beside a SMILES is read from it. X1 = N=C(N)NCCC[C@H](N[*:1])C(=O)c1nc2ccc(C(=O)[*:2])cc2s1 Some results are limits rather than exact numbers.

Chain of Factor Xa (P00742 235-488 limits assumed): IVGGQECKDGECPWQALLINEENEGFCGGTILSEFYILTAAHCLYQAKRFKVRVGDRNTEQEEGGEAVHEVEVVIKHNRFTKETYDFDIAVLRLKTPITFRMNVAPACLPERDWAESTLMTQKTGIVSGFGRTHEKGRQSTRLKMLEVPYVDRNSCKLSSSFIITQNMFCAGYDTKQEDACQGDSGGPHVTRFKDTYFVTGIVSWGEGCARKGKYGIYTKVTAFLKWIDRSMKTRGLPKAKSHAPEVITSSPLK
Chain of Factor Xa (P00742 41-179 partner limits assumed): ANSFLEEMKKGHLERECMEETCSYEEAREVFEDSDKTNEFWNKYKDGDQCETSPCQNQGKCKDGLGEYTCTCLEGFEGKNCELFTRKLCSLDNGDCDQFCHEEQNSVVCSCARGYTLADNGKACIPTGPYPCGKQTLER

As for `CC(=O)N[C@H]1CC(=O)NCCCC[C@@H](C(=O)N[C@@H](CCCNC(=N)N)C(=O)c2nc3ccc(C(=O)N[C@H](C(N)=O)C(C)C)cc3s2)NC(=O)[C@H](CC(C)C)NC1=O` [Compound 20, Ac-cyclo(DLK)-R- ketobenzothiazole-V-amide] (Ac-DLK[X1]V-NH2; lactam 1-3), the IC50 (usually the concentration that gives 50% inhibition) in series [1] was 5.38 µM; on matriptase, 0.011 µM; against Factor Xa, 0.118 µM; against thrombin, 0.034 µM. In addition, the half-life in series [2] and in series [3] was above 4.82 h in each case.
